Reference: US7799821B2, “Therapeutic compounds” (Allergan, Inc., priority 2004, dated 2010)

Legend:
Assay type in all cases: cell-based
[1] = biological target: T1, hEP2/Gqs5 (Homo sapiens, UniProt P43116); assay: FLIPR calcium signal, hEP2; conditions: FLIPR Ca2+ signal, HEK-293(EBNA); read-out: FUNCTIONAL EC50 HEP2
T1 construct: expressed in transfected cells; host or cells: HEK-293(EBNA)
Procedure, shortened: (§1)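 HEK-293(EBNA) cells stably expressing the recombinant human receptor were loaded with 2 μM Fluo-4 AM for 45 min and read on FLIPR at 37° C in HBSS-HEPES pH 7.4. Peak fluorescence rise was expressed relative to buffer and standard agonist controls (BW245C, PGE2 or U-46619 by receptor); compounds were run 10^−5 to 10^−11 M in duplicate, n≧3.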

[2] = biological target: T2, hEP4/Gqs5 (Homo sapiens, UniProt P35408); assay: FLIPR calcium signal, hEP4; conditions: FLIPR Ca2+ signal, HEK-293(EBNA); read-out: FUNCTIONAL EC50 HEP4
T2 construct: expressed in transfected cells; host or cells: HEK-293(EBNA)
Procedure, shortened: as §1

[3] = biological target: T3, hEP3A/Gqi5 (Homo sapiens, UniProt P43115); assay: FLIPR calcium signal, hEP3A; conditions: FLIPR Ca2+ signal, HEK-293(EBNA); read-out: FUNCTIONAL EC50 HEP3A
T3 construct: expressed in transfected cells; host or cells: HEK-293(EBNA)
T3 sequence (P43115 1-390): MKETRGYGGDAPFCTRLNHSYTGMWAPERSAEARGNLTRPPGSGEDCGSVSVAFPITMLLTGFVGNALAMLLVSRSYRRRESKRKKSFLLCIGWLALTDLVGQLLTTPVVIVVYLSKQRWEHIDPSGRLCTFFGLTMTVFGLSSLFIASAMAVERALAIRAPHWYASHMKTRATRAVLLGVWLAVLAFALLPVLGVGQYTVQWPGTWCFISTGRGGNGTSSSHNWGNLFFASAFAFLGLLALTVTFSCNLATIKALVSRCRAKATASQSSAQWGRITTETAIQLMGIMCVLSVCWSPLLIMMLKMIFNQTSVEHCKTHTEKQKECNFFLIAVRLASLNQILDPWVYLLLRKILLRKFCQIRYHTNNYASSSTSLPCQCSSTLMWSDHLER
Method: (§2) HEK-293(EBNA) cells, stably expressing one type or subtype of recombinant human prostaglandin receptors (prostaglandin receptors expressed: hDP/Gqs5; hEP1; hEP2/Gqs5; hEP3A/Gqi5; hEP4/Gqs5; hFP; hIP; hTP), were cultured in 100 mm culture dishes in high-glucose DMEM medium containing 10% fetal bovine serum, 2 mM 1-glutamine, 250 μg/ml geneticin (G418) and 200 μg/ml hygromycin B as selection markers, and 100 units/ml penicillin G, 100 μg/ml streptomycin and 0.25 μg/ml amphotericin B. • (b) Calcium Signal Studies on the FLIPR™
(§3) Cells were seeded at a density of 5×10^4 cells per well in Biocoat® Poly-D-lysine-coated black-wall, clear-bottom 96-well plates (Becton-Dickinson) and allowed to attach overnight in an incubator at 37° C. Cells were then washed two times with HBSS-HEPES buffer (Hanks Balanced Salt Solution without bicarbonate and phenol red, 20 mM HEPES, pH 7.4) using a Denley Cellwash plate washer (Labsystems). After 45 minutes of dye-loading in the dark, using the calcium-sensitive dye Fluo-4 AM at a final concentration of 2 μM, plates were washed four times with HBSS-HEPES buffer to remove excess dye leaving 100 μl in each well. Plates were re-equilibrated to 37° C. for a few minutes.
(§4) Cells were excited with an Argon laser at 488 nm, and emission was measured through a 510-570 nm bandwidth emission filter (FLIPR™, Molecular Devices, Sunnyvale, Calif.). Drug solution was added in a 50 μl volume to each well to give the desired final concentration. The peak increase in fluorescence intensity was recorded for each well. On each plate, four wells each served as negative (HBSS-HEPES buffer) and positive controls (standard agonists: BW245C (hDP); PGE2 (hEP1; hEP2/Gqs5; hEP3A/Gqi5; hEP4/Gqs5); PGF2α (hFP); carbacyclin (hIP); U-46619 (hTP), depending on receptor). The peak fluorescence change in each drug-containing well was then expressed relative to the controls.
(§5) Compounds were tested in a high-throughput (HTS) or concentration-response (CoRe) format. In the HTS format, forty-four compounds per plate were examined in duplicates at a concentration of 10^−5 M. To generate concentration-response curves, four compounds per plate were tested in duplicates in a concentration range between 10^−5 and 10^−11 M. The duplicate values were averaged. In either, HTS or CoRe format each compound was tested on at least 3 separate plates using cells from different passages to give an n≧3.

[4] = biological target: T4, hDP/Gqs5 (Homo sapiens, UniProt Q13258); assay: FLIPR calcium signal, hDP; conditions: FLIPR Ca2+ signal, HEK-293(EBNA); read-out: FUNCTIONAL EC50 HDP
T4 construct: expressed in transfected cells; host or cells: HEK-293(EBNA)
T4 sequence (Q13258 1-359): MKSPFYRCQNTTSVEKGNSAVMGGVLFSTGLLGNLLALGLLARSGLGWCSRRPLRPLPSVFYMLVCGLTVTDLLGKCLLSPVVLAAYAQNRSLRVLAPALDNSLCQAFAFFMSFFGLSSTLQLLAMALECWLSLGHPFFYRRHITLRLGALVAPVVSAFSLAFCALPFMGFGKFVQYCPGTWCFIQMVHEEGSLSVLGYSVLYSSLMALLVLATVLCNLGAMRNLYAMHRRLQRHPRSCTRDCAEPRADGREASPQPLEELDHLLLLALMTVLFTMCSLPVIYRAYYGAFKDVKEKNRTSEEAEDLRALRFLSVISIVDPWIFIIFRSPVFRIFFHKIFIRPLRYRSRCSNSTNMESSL
Method: as §2, §3, §4, §5

[5] = biological target: T5, hIP (Homo sapiens, UniProt P43119); assay: FLIPR calcium signal, hIP; conditions: FLIPR Ca2+ signal, HEK-293(EBNA); read-out: FUNCTIONAL EC50 HIP
T5 construct: expressed in transfected cells; host or cells: HEK-293(EBNA)
Method: as §2, §3, §4, §5

[6] = biological target: T6, hTP (Homo sapiens, UniProt P21731); assay: FLIPR calcium signal, hTP; conditions: FLIPR Ca2+ signal, HEK-293(EBNA); read-out: FUNCTIONAL EC50 HTP
T6 construct: expressed in transfected cells; host or cells: HEK-293(EBNA)
T6 sequence (P21731 1-343): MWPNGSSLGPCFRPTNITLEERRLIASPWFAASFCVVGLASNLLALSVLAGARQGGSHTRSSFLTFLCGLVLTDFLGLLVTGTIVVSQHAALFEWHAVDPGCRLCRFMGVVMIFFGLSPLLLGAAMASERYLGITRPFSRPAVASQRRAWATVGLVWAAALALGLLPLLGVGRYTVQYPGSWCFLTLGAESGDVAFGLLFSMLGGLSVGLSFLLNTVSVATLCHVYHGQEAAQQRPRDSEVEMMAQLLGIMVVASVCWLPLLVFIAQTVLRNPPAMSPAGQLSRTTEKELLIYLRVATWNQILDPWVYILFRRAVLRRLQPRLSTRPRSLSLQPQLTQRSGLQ
Method: as §2, §3, §4, §5

[7] = biological target: T7, hEP1 (Homo sapiens, UniProt P34995); assay: FLIPR calcium signal, hEP1; conditions: FLIPR Ca2+ signal, HEK-293(EBNA); read-out: FUNCTIONAL EC50 HEP1
T7 construct: expressed in transfected cells; host or cells: HEK-293(EBNA)
T7 sequence (P34995 1-402): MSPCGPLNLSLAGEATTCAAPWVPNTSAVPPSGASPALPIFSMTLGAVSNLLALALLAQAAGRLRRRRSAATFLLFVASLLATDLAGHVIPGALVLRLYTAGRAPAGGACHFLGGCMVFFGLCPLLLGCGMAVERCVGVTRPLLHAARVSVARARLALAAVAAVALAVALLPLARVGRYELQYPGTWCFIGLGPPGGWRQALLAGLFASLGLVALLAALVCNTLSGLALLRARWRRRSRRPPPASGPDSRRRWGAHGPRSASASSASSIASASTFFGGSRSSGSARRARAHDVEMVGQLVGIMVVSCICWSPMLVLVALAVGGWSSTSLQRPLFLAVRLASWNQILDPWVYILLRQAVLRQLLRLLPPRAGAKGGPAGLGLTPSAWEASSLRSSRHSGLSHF
Method: as §2, §3, §4, §5

T1 sequence (P43116 whole entry): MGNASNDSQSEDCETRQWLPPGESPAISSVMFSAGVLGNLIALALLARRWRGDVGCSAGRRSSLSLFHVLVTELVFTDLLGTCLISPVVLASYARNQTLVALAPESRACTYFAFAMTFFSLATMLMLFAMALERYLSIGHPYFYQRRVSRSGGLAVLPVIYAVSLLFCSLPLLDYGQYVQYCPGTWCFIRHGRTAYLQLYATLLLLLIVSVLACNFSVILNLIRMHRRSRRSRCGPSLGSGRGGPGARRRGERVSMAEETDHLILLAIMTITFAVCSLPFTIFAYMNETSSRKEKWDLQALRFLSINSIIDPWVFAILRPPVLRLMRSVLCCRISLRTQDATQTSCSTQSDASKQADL
T2 sequence (P35408 whole entry): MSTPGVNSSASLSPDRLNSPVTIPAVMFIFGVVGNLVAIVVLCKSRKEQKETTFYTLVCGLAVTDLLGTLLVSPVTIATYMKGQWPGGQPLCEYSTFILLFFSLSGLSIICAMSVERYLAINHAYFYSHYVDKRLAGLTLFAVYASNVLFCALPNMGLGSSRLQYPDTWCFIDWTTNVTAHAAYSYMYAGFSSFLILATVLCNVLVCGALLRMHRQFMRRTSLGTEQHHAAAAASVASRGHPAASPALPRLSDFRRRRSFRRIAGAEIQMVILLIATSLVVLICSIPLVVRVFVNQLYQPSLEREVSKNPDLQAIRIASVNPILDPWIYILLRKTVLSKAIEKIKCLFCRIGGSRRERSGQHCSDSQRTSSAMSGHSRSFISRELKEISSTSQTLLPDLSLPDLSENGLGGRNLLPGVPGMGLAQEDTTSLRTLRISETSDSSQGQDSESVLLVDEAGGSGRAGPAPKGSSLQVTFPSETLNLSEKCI
T5 sequence (P43119 whole entry): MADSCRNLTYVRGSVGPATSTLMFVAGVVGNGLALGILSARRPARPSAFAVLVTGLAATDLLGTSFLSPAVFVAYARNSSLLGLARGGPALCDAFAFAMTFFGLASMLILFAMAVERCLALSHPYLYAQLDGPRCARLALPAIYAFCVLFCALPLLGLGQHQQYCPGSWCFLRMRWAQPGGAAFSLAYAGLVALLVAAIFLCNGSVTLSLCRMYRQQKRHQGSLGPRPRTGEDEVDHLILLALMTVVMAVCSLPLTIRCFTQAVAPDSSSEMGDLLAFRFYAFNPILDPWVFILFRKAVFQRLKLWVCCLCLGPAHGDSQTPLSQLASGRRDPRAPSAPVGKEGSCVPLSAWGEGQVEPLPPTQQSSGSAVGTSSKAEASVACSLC

SMILES	EC50 [1] [µM]	EC50 [2] [µM]	EC50 [3] [µM]	EC50 [4] [µM]	EC50 [5] [µM]	EC50 [6] [µM]	EC50 [7] [µM]
CCCC1(C(O)c2cccc([C@@H]3[C@@H](C/C=C\CCCC(=O)OC)[C@H](Cl)C[C@H]3O)c2)CCC1 (stereo partly drawn)	> 10	–	> 10	–	–	> 10	–
CCCC1(C(O)c2cccc([C@@H]3[C@@H](C/C=C\CCCC(=O)O)[C@H](Cl)C[C@H]3O)c2)CCC1 (stereo partly drawn)	0.322	–	0.455	> 10	–	> 10	–
CC(C)(C)c1ccc([C@H]2[C@H](O)CC(=O)[C@@H]2C/C=C\CCCC(=O)O)cc1	1.71	–	–	–	–	–	> 10
CC(C)(C)c1ccc([C@H]2[C@H](O)CC(=O)[C@@H]2CCCCCCC(=O)O)cc1	0.102	–	3.39	–	> 10	4.27	> 10
CC(C)(C)c1ccc([C@@H]2[C@@H](C/C=C\CCCC(=O)O)[C@H](Cl)C[C@H]2O)cc1	0.118	> 10	2.05	> 10	–	1.27	> 10

Second part, the compound after the results:

EC50 [1] [µM]	EC50 [2] [µM]	EC50 [3] [µM]	EC50 [4] [µM]	EC50 [5] [µM]	EC50 [6] [µM]	EC50 [7] [µM]	SMILES
> 10	> 10	> 10	> 10	> 10	–	–	CCCC1(C(O)c2cccc([C@H]3[C@H](O)CC(=O)[C@@H]3CCCCCCC(=O)OC)c2)CCC1 (stereo partly drawn)
0.936	> 10	> 10	–	–	> 10	–	COC(=O)CCCCCC[C@H]1C(=O)C[C@@H](O)[C@@H]1c1ccc(C(C)(C)C)cc1
> 10	> 10	> 10	–	–	> 10	–	COC(=O)CCCCCC[C@H]1C(=O)C[C@@H](O)[C@@H]1c1ccc2c(c1)CCC2
